# pIC50: −log10 of the molar value.
# Molecular target: human CB1 (cannabinoid receptor 1) (Homo sapiens, UniProt P21554)
# Test: CB1 receptor inhibition effect: calcium ion influx assay (Fluo-4 NW) in Chem-1 cells after 1 μM R-(+)-WIN55212-2
# Type: cell-based
# Details: calcium ion influx in Chem-1 cells expressing human CB1, 1 μM R-(+)-WIN55212-2
# Experimental: When cells in which the cannabinoid receptor 1 (CB1) is stably expressed are treated with a CB1 receptor agonist, the CB1 receptor is activated and influx of calcium ions into the cells increases. CB1 receptor inhibition effect of a test compound can be evaluated by measuring the degree of calcium influx inhibition after treating with the test compound.
# First, Chem-1 cells (Chemicon International, #HTS019C) in which human CB1 cDNA is expressed stably were seeded onto a 96-well cell culture plate at a density of ˜50,000 cells/well and incubated overnight in a 5% CO2 incubator at 37° C. The next day, the culture medium was discarded and the cells were cautiously washed once using an assay buffer (HBSS containing 20 mM HEPES and 2.5 mM probenecid) with 200 μL/well. Calcium ion influx was measured using an assay kit (Fluo-4 NW calcium assay kit: Molecular Probes™, #F36206) according to the manufacturer's instructions. The compounds of Examples of desired concentration to be measured were comprised to 0.5% DMSO. For control, only 0.5% DMSO was used without the compounds of Examples. Reaction time was 10 minutes. After treating the Chem-1 cells stably expressing the CB1 receptor with 1 μM R-(+)-WIN55212-2 (Sigma, #W102), a CB1 receptor agonist, calcium ion (Ca^2+) flux induced thereby was measured for 80 seconds using Flex Station 3 (Molecular Device, USA).
# The difference in calcium ion concentration of the cells treated with the compounds of Examples or those treated with 1 μM R-(+)-WIN55212-2 was obtained from the difference of the maximum and minimum values during the 80 seconds. Then, % inhibition of the compounds for the CB1 receptor was calculated using the following equation. % inhibition={1−(ΔRFUcompound−ΔRFUBlank)/(ΔRFUControl−ΔRFUBlank)}×100 [Equation]
# ΔRFU: maximum relative fluorescence units−minimum relative fluorescence units
# ΔRFUCompound: difference in maximum and minimum RFUs in the well where the compounds of Examples dissolved in DMSO to a final concentration of 0.5% and 1 μM R-(+)-WIN55212-2 dissolved in DMSO to a final concentration of 0.5% were added
# ΔRFUBlank: difference in maximum and minimum RFUs in the well to which only 1% DMSO was added
# ΔRFUControl: difference in maximum and minimum RFUs in the well where 0.5% DMSO and 1 μM R-(+)-WIN55212-2 dissolved in DMSO to a final concentration of 0.5% were added
# Chain of human CB1 (cannabinoid receptor 1) (P21554 whole entry): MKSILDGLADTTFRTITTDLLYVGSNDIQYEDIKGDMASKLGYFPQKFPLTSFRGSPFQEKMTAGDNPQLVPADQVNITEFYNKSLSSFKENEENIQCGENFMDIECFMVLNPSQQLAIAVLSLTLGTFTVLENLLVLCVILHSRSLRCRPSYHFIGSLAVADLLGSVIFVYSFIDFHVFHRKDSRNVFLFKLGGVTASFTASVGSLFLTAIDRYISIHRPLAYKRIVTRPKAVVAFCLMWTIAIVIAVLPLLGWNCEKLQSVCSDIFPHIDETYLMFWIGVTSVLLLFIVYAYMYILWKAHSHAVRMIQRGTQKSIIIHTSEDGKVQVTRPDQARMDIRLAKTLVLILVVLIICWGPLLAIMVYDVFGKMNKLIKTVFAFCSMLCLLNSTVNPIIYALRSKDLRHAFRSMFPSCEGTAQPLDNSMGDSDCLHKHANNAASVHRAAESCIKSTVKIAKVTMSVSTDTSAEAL
row,Structure (SMILES),pIC50
1,Cc1nn2c(-c3ccc(F)cc3)cc(N3CCC[C@H]3CO)nc2c1-c1ccc(C#N)cc1 [Example 106],6.60
2,COCc1nn2c(-c3cccc(F)c3)cc(N(C)CCO)nc2c1-c1ccc(Cl)cc1 [Example 261],8.05
3,CCOc1ccc(-c2c(C)nn3c(-c4ccc(F)cc4)cc(N4CCC[C@H]4CO)nc23)cc1F [Example 81],6.52
4,C=Cc1ccc(-c2c(C)nn3c(-c4cccc(F)c4)cc(N4CCC[C@H]4CO)nc23)cc1 [Example 117],6.62
5,CCOCc1nn2c(-c3cccc(Cl)c3)cc(N3CCC[C@H]3CO)nc2c1-c1ccc2c(c1)OCO2 [Example 217],6.82
6,COc1cccc(-c2cc(N3CCC[C@H]3CO)nc3c(-c4ccc(F)cc4F)c(C)nn23)c1 [Example 190],6.74
7,Cc1nn2c(-c3ccc(F)c(Cl)c3)cc(N3CCC[C@H]3CO)nc2c1-c1ccc(F)cc1 [Example 192],6.82
8,"CCOCc1nn2c(-c3ccc(F)cc3)cc(N(C)CCO)nc2c1-c1ccc(C)cc1 [Example 239, 2-{[2-ethoxymethyl-7-(4-fluorophenyl)-3-(4-methylphenyl)-pyrazolo[1,5-a]pyrimidin-5-yl]methylamino}ethanol]",7.55
9,Cc1ccccc1-c1cc(N2CCC[C@H]2CO)nc2c(-c3ccc(Cl)cc3)c(C)nn12 [Example 13],6.52
10,CCOCc1nn2c(-c3cccc(C(F)(F)F)c3)cc(N3CCC[C@H]3CO)nc2c1-c1ccc(Cl)cc1 [Example 208],8.15
11,COc1cccc(-c2cc(N3CCC[C@H]3CO)nc3c(-c4ccc(Cl)cc4)c(C)nn23)c1 [Example 6],6.70
12,COCc1nn2c(-c3cccc(C(F)(F)F)c3)cc(N3CCC[C@H]3CO)nc2c1-c1ccc(Cl)cc1 [Example 233],8.22
13,"Cc1nn2c(-c3cccc(Cl)c3)cc(N3CCC[C@H]3CO)nc2c1-c1ccc(Cl)cc1 [Example 2, (S)-(1-(3-(4-chlorophenyl)-7-(3-chlorophenyl)-2-methylpyrazolo[1,5-a]pyrimidin-5-yl)pyrrolidin-2-yl)methanol]",7.00
14,OC[C@@H]1CCCN1c1cc(-c2cccc(F)c2)n2nc(C3CC3)c(-c3ccc(Cl)cc3)c2n1 [Example 197],6.82
15,Cc1nn2c(-c3ccc(F)cc3)cc(N3CCC[C@H]3CO)nc2c1-c1ccc(OC(F)(F)F)cc1 [Example 84],6.28
16,Cc1nn2c(-c3cccc(Cl)c3)cc(N3CCC[C@H]3CO)nc2c1-c1ccc(C(F)(F)F)cc1 [Example 173],6.60
17,"COc1ccc(-c2c(C)nn3c(-c4ccc(F)c(F)c4)cc(N4CCC[C@H]4CO)nc23)cc1 [Example 38, (S)-{1-[7-(3,4-difluorophenyl)-3-(4-methoxyphenyl)-2-methylpyrazolo[1,5-a]pyrimidin-5-yl)pyrrolidin-2-yl)methanol]",7.00
18,"CCc1nn2c(-c3ccc(F)cc3)cc(N3CCC[C@H]3CO)nc2c1-c1ccc(C)cc1 [Example 198, (S)-(1-(3-(4-methylphenyl)-7-(4-fluorophenyl)-2-ethylpyrazolo[1,5-a]pyrimidin-5-yl)pyrrolidin-2-yl)methanol]",7.30
19,COCc1nn2c(-c3cccc(C)c3)cc(N3CCC[C@H]3CO)nc2c1-c1ccc(Cl)cc1 [Example 234],7.82
20,CCc1nn2c(-c3cccc(F)c3)cc(N3CCC[C@H]3CO)nc2c1-c1ccc(C)cc1 [Example 200],6.96
21,CCOc1ccc(-c2c(C)nn3c(-c4cccc(C(F)(F)F)c4)cc(N4CCC[C@H]4CO)nc23)cc1 [Example 124],7.15
22,Cc1nn2c(-c3ccc(F)cc3)cc(N3CCC[C@H]3CO)nc2c1-c1ccccc1F [Example 87],6.37
23,"CCOc1ccc(-c2c(C)nn3c(-c4ccc(F)c(F)c4)cc(N4CCC[C@H]4CO)nc23)cc1 [Example 48, (S)-{1-[7-(3,4-difluorophenyl)-3-(4-ethoxyphenyl)-2-methylpyrazolo[1,5-a]pyrimidin-5-yl)pyrrolidin-2-yl)methanol]",6.74
24,OC[C@@H]1CCCN1c1cc(-c2cccc(C(F)(F)F)c2)n2ncc(-c3ccc(F)cc3)c2n1 [Example 276],6.47
25,COc1ccc(-c2c(C)nn3c(-c4cc(F)cc(F)c4)cc(N4CCC[C@H]4CO)nc23)cc1 [Example 45],6.92
26,"Cc1nn2c(-c3cc(F)cc(F)c3)cc(N3CCC[C@H]3CO)nc2c1-c1ccc2c(c1)OCO2 [Example 62, (S)-(1-(3-(3,4-methylenedioxyphenyl)-7-(3,5-difluorophenyl)-2-methylpyrazolo[1,5-a]pyrimidin-5-yl)pyrrolidin-2-yl)methanol]",7.15

# Further molecules by rising pIC50, results first:
row,pIC50,Structure (SMILES)
1,6.39,Cc1ccc(-c2c(C)nn3c(-c4cc(F)cc(F)c4)cc(N4CCC[C@H]4CO)nc23)cc1 [Example 35]
2,6.41,CCOc1ccc(-c2c(C)nn3c(-c4ccc(C)cc4)cc(N4CCC[C@H]4CO)nc23)cc1 [Example 53]
3,6.46,Cc1nn2c(-c3ccc(Cl)cc3)cc(N3CCC[C@H]3CO)nc2c1-c1ccc(Cl)cc1 [Example 15]
4,6.51,Cc1nn2c(-c3ccc(F)cc3)cc(N3CCC[C@H]3CO)nc2c1-c1ccc(Cl)c(Cl)c1 [Example 96]
5,6.62,COc1ccc(-c2cc(N3CCC[C@H]3CO)nc3c(-c4ccc(C)cc4)c(C)nn23)cc1 [Example 27]
6,6.66,Cc1nn2c(-c3ccc(F)cc3)cc(N3CCC[C@H]3CO)nc2c1-c1ccccc1 [Example 83]
7,6.70,Cc1cccc(-c2cc(N3CCC[C@H]3CO)nc3c(-c4ccc5c(c4)OCO5)c(C)nn23)c1 [Example 159]
8,6.70,CCOc1ccc(-c2c(C)nn3c(-c4cc(F)cc(F)c4)cc(N4CCC[C@H]4CO)nc23)cc1 [Example 55]
9,6.77,CCOCc1nn2c(-c3cccc(F)c3)cc(N3CCC[C@H]3CO)nc2c1-c1ccc(OC)cc1 [Example 210]
10,6.82,Cc1ccc(-c2c(C)nn3c(-c4ccc(F)c(F)c4)cc(N4CCC[C@H]4CO)nc23)cc1F [Example 184]
11,6.89,CCc1cccc(-c2cc(N3CCC[C@H]3CO)nc3c(-c4ccc(C)cc4)c(C)nn23)c1 [Example 31]
12,6.89,CCOCc1nn2c(-c3cccc(Cl)c3)cc(N(C)CCO)nc2c1-c1ccc2c(c1)OCO2 [Example 254]
13,7.10,"Cc1ccc(-c2c(C)nn3c(-c4cccc(F)c4)cc(N4CCC[C@H]4CO)nc23)cc1 [Example 110, (S)-(1-(3-(4-methylphenyl)-7-(3-fluorophenyl)-2-methylpyrazolo[1,5-a]pyrimidin-5-yl)pyrrolidin-2-yl)methanol]"
14,7.16,Cc1nn2c(-c3cccc(C(F)(F)F)c3)cc(N3CCC[C@H]3CO)nc2c1-c1ccc(C(F)F)cc1 [Example 126]
15,7.28,CCOCc1nn2c(-c3ccc(F)cc3)cc(N3CCC[C@H]3CO)nc2c1-c1ccc(OC)cc1 [Example 209]
16,7.62,COCc1nn2c(-c3cccc(C(F)(F)F)c3)cc(N3CCC[C@H]3CO)nc2c1-c1ccc2c(c1)OCO2 [Example 238]
17,8.00,CCOCc1nn2c(-c3cccc(F)c3)cc(N(C)CCO)nc2c1-c1ccc(C)cc1 [Example 240]
18,8.10,CCOCc1nn2c(-c3ccc(F)cc3)cc(N3CCC[C@H]3CO)nc2c1-c1ccc(Cl)cc1 [Example 206]
19,8.10,COCc1nn2c(-c3ccc(F)cc3)cc(N3CCC[C@H]3CO)nc2c1-c1ccc(OC)cc1 [Example 222]
20,8.15,COCc1nn2c(-c3ccc(F)cc3)cc(N3CCC[C@H]3CO)nc2c1-c1ccc(Cl)cc1 [Example 231]
